# Measured values reported in patent US20240148002A1, “BIOCIDAL COMPOSITIONS CONTAINING COPPER AND A CO-BIOCIDE” (CORNING INCORPORATED, priority 2021, published 2024).
# System: Pseudomonas aeruginosa (P. aeruginosa)
# Experiment: Minimum bactericidal concentration (MBC) test: serial dilutions in thickened Letheen Broth, plating and colony count
# Assay type: cell-based
# Design: key to MBC observation (contamination grade): −: no bacteria was observed on the plates; +: a trace of contamination was observed (<10 colonies); ++: light contamination was observed (>100 colonies); +++: heavy contamination was observed (continuous smear of growth)
# Conditions: 24 hours at 37° C.
# Protocol: The minimum bactericidal concentration (MBC) values reported herein were determined using Pseudomonas aeruginosa (P. aeruginosa), which is a gram-negative pathogen that can cause severe acute and chronic infections. The MBC is the lowest biocide or biocide combination concentration that kills 100% of the tested bacteria. The cultures of P. aeruginosa were grown for 24 hours in Letheen Broth before treatment with each biocide (e.g., copper-containing glass particles or organic co-biocide) or biocide combination (e.g., copper-containing glass particles and an organic co-biocide). A stock copper-containing glass particle dispersion containing 10 wt % copper-containing glass particles and 1.5% hydoxyethylcellulose (HEC) thickener (Natrosol™ Plus 330 PA) was prepared for serial dilution in thickened Letheen Broth (Letheen Broth containing 1.5 wt % HEC thickener) to achieve the desired test concentrations. A stock organic co-biocide or biocide combination dispersion was prepared by combining 5 grams of a 1 wt % dispersion of each organic co-biocide or biocide combination in 1 wt % HEC thickener for serial dilution to achieve the desired test concentrations. 1000 μL of the dispersion of interest was added to a microcentrifuge tube (referred to as “tube 1”). Serial dilution continued with the dilution of 500 μL of the dispersion from tube 1 with 500 μL of thickened Letheen Broth (“tube 2”). Serial dilutions were continued in this manner […] (tube 3 to tube 10). Tube 11 contained 500 μL of thickened Letheen Broth as a “broth blank.” 50 μL of P. aeruginosa was transferred directly from culture into each of tubes 1-11 and the tubes were incubated at 37° C. for 24 hours. At the end of the incubation period, each tube 1-11 was plated and the plates were incubated at 37° C. for 24 hours. At the end of the incubation period, the plates were removed and the colonies on each plate were counted and recorded.
# The number of colonies remaining after treatment was determined for serial dilutions of 3 different organic biocides alone and in combination with copper-containing glass particles. Example 1A was treated with serial dilutions of Nuosept® 95 Preservative, which contains a mixture of 5-hydroxymethyl-1-aza-3,7-dioxabicyclo-(3.3.0) octane, 5-hydroxymethoxymethyl-1-aza-3,7-dioxabicyclo-(3.3.0) octane, and 5-hydroxypoly(methyleneoxy)methyl-1-aza-3,7-dioxabicyclo-(3.3.0) octane. Examples 1B and 1C were treated with serial dilutions of a 50:50 mixture and a 25:75 mixture, respectively, of Nuosept® 95 Preservative and copper-containing glass particles. Example 2A was treated with serial dilutions of benzisothiazolinone (BIT). Examples 2B and 2C were treated with serial dilutions of a 50:50 mixture and a 25:75 mixture, respectively, of BIT and copper-containing glass particles. Example 3A was treated with serial dilutions of Bronopol. Examples 3B and 3C were treated with serial dilutions of a 50:50 mixture and a 25:75 mixture, respectively, of Bronopol and copper-containing glass particles. Examples 4A and 4B were duplicate samples treated with serial dilutions of the copper-containing glass particles.
# For each Example 1A-C, 2A-C, 3A-C, and 4A-B, 1000 μL of the dispersion of interest, the stock organic co-biocide dispersion, the stock copper-containing glass particle dispersion, or the indicated ratio of each dispersion, was added to a microcentrifuge tube (referred to as “tube 1”). 500 μL of the dispersion from tube 1 was diluted with 500 μL of thickened Letheen Broth (“tube 2”). Serial dilutions with thickened Letheen Broth were prepared up to tube 10. Tube 11 contained 500 μL of thickened Letheen Broth as a “broth blank.” 50 μL of P. aeruginosa was transferred directly from culture into each of tubes 1-11 and the tubes were incubated at 37° C. for 24 hours. At the end of the incubation period, each tube 1-11 was plated and the plates were incubated 37° C. for 24 hours. […]
# [1] = Biocide Conc. 3.91 ppm (tube 10)
# [2] = Biocide Conc. 7.81 ppm (tube 9)
# [3] = Biocide Conc. 15.63 ppm (tube 8)
# [4] = Biocide Conc. 31.25 ppm (tube 7)
# [5] = Biocide Conc. 62.5 ppm (tube 6)
# [6] = Biocide Conc. 1000 ppm (tube 2)
# [7] = Biocide Conc. 2000 ppm (tube 1)
Structure (SMILES),MBC observation (contamination grade) [1],colony count [1],MBC observation (contamination grade) [2],colony count [2],MBC observation (contamination grade) [3],colony count [3],MBC observation (contamination grade) [4],colony count [4] [colonies],MBC observation (contamination grade) [5],colony count [5] [colonies],MBC observation (contamination grade) (Biocide Conc. 125 ppm (tube 5)),colony count (Biocide Conc. 125 ppm (tube 5)) [colonies],MBC observation (contamination grade) (Biocide Conc. 250 ppm (tube 4)),colony count (Biocide Conc. 250 ppm (tube 4)) [colonies],MBC observation (contamination grade) (Biocide Conc. 500 ppm (tube 3)),colony count (Biocide Conc. 500 ppm (tube 3)) [colonies],MBC observation (contamination grade) [6],colony count [6] [colonies],MBC observation (contamination grade) [7],colony count [7] [colonies]
"O=c1[nH]sc2ccccc12 [Ex. 2A, benzisothiazolinone]",+++,(>1000) colonies,+++,(>1000) colonies,+++,(>1000) colonies,++ (light contamination was observed (>100 colonies)),513,+ (a trace of contamination was observed (<10 colonies)),35,−,0,−,0,−,0,−,0,−,0
"O=[N+]([O-])C(Br)(CO)CO [Ex. 3A, Bronopol]",+++,(>1000) colonies,+++,(>1000) colonies,−,0 colonies,−,0,−,0,−,0,−,0,−,0,−,0,−,0
